In US8642646B2, “Method and composition for treating acne using lignan compounds” (New Tree Industry Co., Ltd., priority 2004, dated 2014):
Values after ≈ are worked out from the molar mass of the structure shown.

Key:
Propionibacterium acnes [1] = conditions: literature values; cited from earlier work
acne patients = test: Clinical test on acne patients, oral administration; assay type: in vivo, human
Method: The macelignan isolated and purified in Example <1-1> was clinically tested for acne treatment. • 30 men and women in their mid-30s, who suffer from acne, were selected as test subjects. The macelignan was administered to the test subjects at 600 mg two times a day for 4 weeks.

Propionibacterium acnes [2] = test: Minimum inhibitory concentration (MIC), broth serial dilution; assay type: cell-based; conditions: Cutibacterium acnes; BHI broth, 37° C., at least 24 hours; read-out: Minimum inhibitory concentration against Propionibacterium acnes
Method: (§1) The macelignan compound prepared in Example <1-1> was dissolved in 0.5% methanol, and 1 ml of BHI (Brain Heart Infusion) broth was placed into each of test tubes. 1 ml of 2% macelignan solution was placed only into the first test tube and serially diluted 2-fold. Then, 100 μl of Propionibacterium acnes were added at 2×10^5 CFU/ml to each test tube and cultured at 37° C. for at least 24 hours. […] Using the same method, the minimum inhibitory concentrations against Staphylococcus aureus and Staphylococcus epidermis were also measured and the results are shown in Table 2.

Staphylococcus epidermis = test: as above; assay type: cell-based; conditions: same method, read-out: Minimum inhibitory concentration against Staphylococcus epidermis
Method: as §1

Staphylococcus aureus = test: as above; assay type: cell-based; conditions: same method, read-out: Minimum inhibitory concentration against Staphylococcus aureus
Method: as §1

Propionibacterium acnes [3] = test: Growth inhibition of Propionibacterium acnes by viable cell counting; assay type: cell-based; conditions: 37° C.
Method: The macelignan compound prepared in Example <1-1> was dissolved in dimethylsulfoxide to concentrations of 0.002%, 0.001% and 0.0005%, respectively. 100 μl of Propionibacterium acnes diluted to 2×10^5 CFU/ml was added to test tubes containing the macelignan solutions and allowed to react at 37° C. for 2 hr, 4 hr, 8 hr, 12 hr, 16 hr, 20 hr, and 24 hr. Each sample was serially diluted 10-fold and subjected to the pour plate method. The plates were cultured in an incubator at 37° C. and measured for viable cell colonies of Propionibacterium acnes.

acne-causing bacteria = test: Thermal stability: antibacterial activity by well diffusion assay after thermal treatment; assay type: cell-based; conditions: for Diameter of clear zone on the plate containing macelignan: 0.1% in dimethylsulfoxide
Method: The macelignan compound prepared in Example <1-1> was dissolved in dimethylsulfoxide to a concentration of 0.1%. The sample was thermally treated for 30 minutes at different temperatures of 60° C., 70° C., 80° C., 90° C., 100° C., and 121° C. and measured for antibacterial activity by the well diffusion assay.

[4] = oral 600 mg two times a day, 4 weeks

For `O=C(OOC(=O)c1ccccc1)c1ccccc1` [benzoyl peroxide], the “MIC against Propionibacterium acnes” value (Propionibacterium acnes [1]) is listed as 500 to 1000 µg/mL.

In the case of `COc1cc(C[C@H](C)[C@H](C)Cc2ccc3c(c2)OCO3)ccc1O` [macelignan], the “Comedos, mean number after 4 weeks of administration” value (acne patients; [4]) was 7.94, the “Nodules, mean number after 4 weeks of administration” value (acne patients; [4]) was 0.24 and the “Papules, mean number after 4 weeks of administration” value (acne patients; [4]) was 5.69. The “Pustules, mean number after 4 weeks of administration” value (acne patients; [4]) was 2.30, the “number of lesions after 4 weeks compared to before administration” value (acne patients; oral 600 mg two times a day, 4 weeks, p-value<0.05) was “remarkably reduced” and the “Comedos, mean number before administration” value (acne patients; oral, before administration) was 18.92. The “Nodules, mean number before administration” value (acne patients; oral, before administration) was 0.74, the “Papules, mean number before administration” value (acne patients; oral, before administration) was 14.47 and the “Pustules, mean number before administration” value (acne patients; oral, before administration) was 5.92. It also gave an MIC (Propionibacterium acnes [2]) of 2 µg/mL (≈ 6.09 µM), an MIC (Staphylococcus epidermis) of 64 µg/mL (≈ 195 µM) and an MIC (Staphylococcus aureus) of 125 µg/mL (≈ 381 µM). The “time within which the bacteria were almost dead” value (Propionibacterium acnes [3]; macelignan 0.001% (10 μg/ml)) was at most 8 h, the “time within which the bacteria were almost dead” value (Propionibacterium acnes [3]; macelignan 0.002% (20 μg/ml)) was at most 2 h and the “Diameter of clear zone on the plate containing macelignan” value (from here on “Diameter of clear zone”) (acne-causing bacteria; treated 30 minutes at 60° C.) was 17 mm. The “Diameter of clear zone” value (acne-causing bacteria; treated 30 minutes at 70° C.) was 16 mm, the “Diameter of clear zone” value (acne-causing bacteria; treated 30 minutes at 80° C.) was 17 mm and the “Diameter of clear zone” value (acne-causing bacteria; treated 30 minutes at 90° C.) was 17 mm. For the same compound, the “Diameter of clear zone” value (acne-causing bacteria; treated 30 minutes at 100° C.) was 18 mm, the “Diameter of clear zone” value (acne-causing bacteria; treated 30 minutes at 121° C.) was 17 mm and the “thermal stability (change of antibacterial activity after thermal treatment)” value (acne-causing bacteria; thermal treatment at 60° C.-121° C.) was “little or no reduction in antibacterial activity”.

In the case of `CC1=CCC(O)(C(C)C)CC1` (stereo not drawn) [terpinen-4-ol], the “MIC against Propionibacterium acnes” value (Propionibacterium acnes [1]) is listed as 300 to 500 µg/mL.

In the case of benzalkonium chloride, the “MIC against Propionibacterium acnes” value (Propionibacterium acnes [1]) is listed as 200˜300 μg/ml.
